Experimental data reported in the NIST ThermoML archive (doi:10.1021/je500696p).
± gives the expanded uncertainty stated by the source.

Tests used:
[1] = xn = mol fraction of the nth substance listed; conditions: 100 kPa, Liquid, Vibrating tube method
[2] = excess molar enthalpy (molar enthalpy of mixing); xn = mol fraction of the nth substance listed; conditions: 100 kPa, Liquid, Calvet calorimetry

CCCC[N+](C)(C)C.O=S(=O)([N-]S(=O)(=O)C(F)(F)F)C(F)(F)F [butyltrimethylammonium bis(trifluoromethylsulfonyl)imide] + CN(C)C=O
mass density ([1]; 293.15 K, x2 = 0): 1397.1 ± 4.2 kg/m3 | mass density ([1]; 293.15 K, x2 = 0.1268): 1379.7 ± 4.2 kg/m3 | mass density ([1]; 293.15 K, x2 = 0.2011): 1367.7 ± 4.1 kg/m3 | mass density ([1]; 293.15 K, x2 = 0.3028): 1348.7 ± 4.1 kg/m3 | mass density ([1]; 293.15 K, x2 = 0.3824): 1331.3 ± 4 kg/m3 | mass density ([1]; 293.15 K, x2 = 0.5078): 1297.4 ± 3.9 kg/m3 | mass density ([1]; 293.15 K, x2 = 0.6249): 1255.8 ± 3.8 kg/m3 | mass density ([1]; 293.15 K, x2 = 0.7548): 1191.6 ± 3.6 kg/m3 | mass density ([1]; 293.15 K, x2 = 0.8764): 1101.3 ± 3.3 kg/m3 | mass density ([1]; 293.15 K, x2 = 0.9157): 1061.9 ± 3.2 kg/m3 | mass density ([1]; 295.15 K, x2 = 0): 1395.3 ± 4.2 kg/m3 | mass density ([1]; 295.15 K, x2 = 0.1268): 1377.9 ± 4.2 kg/m3 | mass density ([1]; 295.15 K, x2 = 0.2011): 1365.9 ± 4.1 kg/m3 | mass density ([1]; 295.15 K, x2 = 0.3028): 1346.9 ± 4.1 kg/m3 | mass density ([1]; 295.15 K, x2 = 0.3824): 1329.5 ± 4 kg/m3 | mass density ([1]; 295.15 K, x2 = 0.5078): 1295.6 ± 3.9 kg/m3 | mass density ([1]; 295.15 K, x2 = 0.6249): 1253.9 ± 3.8 kg/m3 | mass density ([1]; 295.15 K, x2 = 0.7548): 1189.7 ± 3.6 kg/m3 | mass density ([1]; 295.15 K, x2 = 0.8764): 1099.4 ± 3.3 kg/m3 | mass density ([1]; 295.15 K, x2 = 0.9157): 1060 ± 3.2 kg/m3 | mass density ([1]; 298.15 K, x2 = 0): 1392.7 ± 4.2 kg/m3 | mass density ([1]; 298.15 K, x2 = 0.1268): 1375.3 ± 4.2 kg/m3 | mass density ([1]; 298.15 K, x2 = 0.2011): 1363.2 ± 4.1 kg/m3 | mass density ([1]; 298.15 K, x2 = 0.3028): 1344.2 ± 4 kg/m3 | mass density ([1]; 298.15 K, x2 = 0.3824): 1326.8 ± 4 kg/m3 | mass density ([1]; 298.15 K, x2 = 0.5078): 1292.8 ± 3.9 kg/m3 | mass density ([1]; 298.15 K, x2 = 0.6249): 1251.2 ± 3.8 kg/m3 | mass density ([1]; 298.15 K, x2 = 0.7548): 1186.8 ± 3.6 kg/m3 | mass density ([1]; 298.15 K, x2 = 0.8764): 1096.5 ± 3.3 kg/m3 | mass density ([1]; 298.15 K, x2 = 0.9157): 1057.1 ± 3.2 kg/m3 | mass density ([1]; 303.15 K, x2 = 0): 1388.3 ± 4.2 kg/m3 | mass density ([1]; 303.15 K, x2 = 0.1268): 1370.8 ± 4.1 kg/m3 | mass density ([1]; 303.15 K, x2 = 0.2011): 1358.8 ± 4.1 kg/m3 | mass density ([1]; 303.15 K, x2 = 0.3028): 1339.7 ± 4 kg/m3 | mass density ([1]; 303.15 K, x2 = 0.3824): 1322.2 ± 4 kg/m3 | mass density ([1]; 303.15 K, x2 = 0.5078): 1288.2 ± 3.9 kg/m3 | mass density ([1]; 303.15 K, x2 = 0.6249): 1246.5 ± 3.7 kg/m3 | mass density ([1]; 303.15 K, x2 = 0.7548): 1182.1 ± 3.6 kg/m3 | mass density ([1]; 303.15 K, x2 = 0.8764): 1091.8 ± 3.3 kg/m3 | mass density ([1]; 303.15 K, x2 = 0.9157): 1052.4 ± 3.2 kg/m3 | mass density ([1]; 308.15 K, x2 = 0): 1384 ± 4.2 kg/m3 | mass density ([1]; 308.15 K, x2 = 0.1268): 1366.4 ± 4.1 kg/m3 | mass density ([1]; 308.15 K, x2 = 0.2011): 1354.3 ± 4.1 kg/m3 | mass density ([1]; 308.15 K, x2 = 0.3028): 1335.2 ± 4 kg/m3 | mass density ([1]; 308.15 K, x2 = 0.3824): 1317.7 ± 4 kg/m3 | mass density ([1]; 308.15 K, x2 = 0.5078): 1283.6 ± 3.9 kg/m3 | mass density ([1]; 308.15 K, x2 = 0.6249): 1241.8 ± 3.7 kg/m3 | mass density ([1]; 308.15 K, x2 = 0.7548): 1177.4 ± 3.5 kg/m3 | mass density ([1]; 308.15 K, x2 = 0.8764): 1087 ± 3.3 kg/m3 | mass density ([1]; 308.15 K, x2 = 0.9157): 1047.6 ± 3.1 kg/m3 | mass density ([1]; 313.15 K, x2 = 0): 1379.6 ± 4.2 kg/m3 | mass density ([1]; 313.15 K, x2 = 0.1268): 1362 ± 4.1 kg/m3 | mass density ([1]; 313.15 K, x2 = 0.2011): 1349.9 ± 4.1 kg/m3 | mass density ([1]; 313.15 K, x2 = 0.3028): 1330.7 ± 4 kg/m3 | mass density ([1]; 313.15 K, x2 = 0.3824): 1313.1 ± 4 kg/m3 | mass density ([1]; 313.15 K, x2 = 0.5078): 1279 ± 3.8 kg/m3 | mass density ([1]; 313.15 K, x2 = 0.6249): 1237.2 ± 3.7 kg/m3 | mass density ([1]; 313.15 K, x2 = 0.7548): 1172.7 ± 3.5 kg/m3 | mass density ([1]; 313.15 K, x2 = 0.8764): 1082.3 ± 3.3 kg/m3 | mass density ([1]; 313.15 K, x2 = 0.9157): 1042.8 ± 3.1 kg/m3 | mass density ([1]; 318.15 K, x2 = 0): 1375.2 ± 4.2 kg/m3 | mass density ([1]; 318.15 K, x2 = 0.1268): 1357.6 ± 4.1 kg/m3 | mass density ([1]; 318.15 K, x2 = 0.2011): 1345.4 ± 4.1 kg/m3 | mass density ([1]; 318.15 K, x2 = 0.3028): 1326.2 ± 4 kg/m3 | mass density ([1]; 318.15 K, x2 = 0.3824): 1308.6 ± 3.9 kg/m3 | mass density ([1]; 318.15 K, x2 = 0.5078): 1274.5 ± 3.8 kg/m3 | mass density ([1]; 318.15 K, x2 = 0.6249): 1232.6 ± 3.7 kg/m3 | mass density ([1]; 318.15 K, x2 = 0.7548): 1168 ± 3.5 kg/m3 | mass density ([1]; 318.15 K, x2 = 0.8764): 1077.5 ± 3.2 kg/m3 | mass density ([1]; 318.15 K, x2 = 0.9157): 1038.1 ± 3.1 kg/m3 | mass density ([1]; 323.15 K, x2 = 0): 1370.9 ± 4.1 kg/m3 | mass density ([1]; 323.15 K, x2 = 0.1268): 1353.2 ± 4.1 kg/m3 | mass density ([1]; 323.15 K, x2 = 0.2011): 1341 ± 4 kg/m3 | mass density ([1]; 323.15 K, x2 = 0.3028): 1321.8 ± 4 kg/m3 | mass density ([1]; 323.15 K, x2 = 0.3824): 1304.1 ± 3.9 kg/m3 | mass density ([1]; 323.15 K, x2 = 0.5078): 1269.9 ± 3.8 kg/m3 | mass density ([1]; 323.15 K, x2 = 0.6249): 1227.9 ± 3.7 kg/m3 | mass density ([1]; 323.15 K, x2 = 0.7548): 1163.3 ± 3.5 kg/m3 | mass density ([1]; 323.15 K, x2 = 0.8764): 1072.8 ± 3.2 kg/m3 | mass density ([1]; 323.15 K, x2 = 0.9157): 1033.3 ± 3.1 kg/m3 | mass density ([1]; 328.15 K, x2 = 0): 1366.6 ± 4.1 kg/m3 | mass density ([1]; 328.15 K, x2 = 0.1268): 1348.8 ± 4.1 kg/m3 | mass density ([1]; 328.15 K, x2 = 0.2011): 1336.6 ± 4 kg/m3 | mass density ([1]; 328.15 K, x2 = 0.3028): 1317.3 ± 4 kg/m3 | mass density ([1]; 328.15 K, x2 = 0.3824): 1299.7 ± 3.9 kg/m3 | mass density ([1]; 328.15 K, x2 = 0.5078): 1265.4 ± 3.8 kg/m3 | mass density ([1]; 328.15 K, x2 = 0.6249): 1223.3 ± 3.7 kg/m3 | mass density ([1]; 328.15 K, x2 = 0.7548): 1158.6 ± 3.5 kg/m3 | mass density ([1]; 328.15 K, x2 = 0.8764): 1068 ± 3.2 kg/m3 | mass density ([1]; 328.15 K, x2 = 0.9157): 1028.6 ± 3.1 kg/m3 | mass density ([1]; 333.15 K, x2 = 0): 1362.3 ± 4.1 kg/m3 | mass density ([1]; 333.15 K, x2 = 0.1268): 1344.5 ± 4.1 kg/m3 | mass density ([1]; 333.15 K, x2 = 0.2011): 1332.3 ± 4 kg/m3 | mass density ([1]; 333.15 K, x2 = 0.3028): 1312.9 ± 4 kg/m3 | mass density ([1]; 333.15 K, x2 = 0.3824): 1295.2 ± 3.9 kg/m3 | mass density ([1]; 333.15 K, x2 = 0.5078): 1260.8 ± 3.8 kg/m3 | mass density ([1]; 333.15 K, x2 = 0.6249): 1218.7 ± 3.7 kg/m3 | mass density ([1]; 333.15 K, x2 = 0.7548): 1153.9 ± 3.5 kg/m3 | mass density ([1]; 333.15 K, x2 = 0.8764): 1063.3 ± 3.2 kg/m3 | mass density ([1]; 333.15 K, x2 = 0.9157): 1023.8 ± 3.1 kg/m3 | excess molar enthalpy ([2]; 308.15 K, x2 = 0.1285): -0.0987 ± 0.00406 kcal/mol | excess molar enthalpy ([2]; 308.15 K, x2 = 0.2488): -0.167 ± 0.00693 kcal/mol | excess molar enthalpy ([2]; 308.15 K, x2 = 0.2496): -0.168 ± 0.00693 kcal/mol | excess molar enthalpy ([2]; 308.15 K, x2 = 0.2543): -0.168 ± 0.00693 kcal/mol | excess molar enthalpy ([2]; 308.15 K, x2 = 0.3983): -0.232 ± 0.00956 kcal/mol | excess molar enthalpy ([2]; 308.15 K, x2 = 0.5182): -0.272 ± 0.011 kcal/mol | excess molar enthalpy ([2]; 308.15 K, x2 = 0.5211): -0.272 ± 0.011 kcal/mol | excess molar enthalpy ([2]; 308.15 K, x2 = 0.6283): -0.284 ± 0.0115 kcal/mol | excess molar enthalpy ([2]; 308.15 K, x2 = 0.7679): -0.253 ± 0.0103 kcal/mol | excess molar enthalpy ([2]; 308.15 K, x2 = 0.889): -0.162 ± 0.00669 kcal/mol | excess molar enthalpy ([2]; 313.15 K, x2 = 0.1226): -0.0961 ± 0.00382 kcal/mol | excess molar enthalpy ([2]; 313.15 K, x2 = 0.2487): -0.167 ± 0.00693 kcal/mol | excess molar enthalpy ([2]; 313.15 K, x2 = 0.261): -0.174 ± 0.00717 kcal/mol | excess molar enthalpy ([2]; 313.15 K, x2 = 0.3939): -0.232 ± 0.00932 kcal/mol | excess molar enthalpy ([2]; 313.15 K, x2 = 0.5209): -0.273 ± 0.0112 kcal/mol | excess molar enthalpy ([2]; 313.15 K, x2 = 0.5249): -0.275 ± 0.0112 kcal/mol | excess molar enthalpy ([2]; 313.15 K, x2 = 0.625): -0.286 ± 0.0117 kcal/mol | excess molar enthalpy ([2]; 313.15 K, x2 = 0.7717): -0.247 ± 0.01 kcal/mol | excess molar enthalpy ([2]; 313.15 K, x2 = 0.8796): -0.174 ± 0.00717 kcal/mol | excess molar enthalpy ([2]; 323.15 K, x2 = 0.129): -0.102 ± 0.00406 kcal/mol | excess molar enthalpy ([2]; 323.15 K, x2 = 0.2459): -0.169 ± 0.00693 kcal/mol | excess molar enthalpy ([2]; 323.15 K, x2 = 0.2473): -0.169 ± 0.00693 kcal/mol | excess molar enthalpy ([2]; 323.15 K, x2 = 0.3807): -0.229 ± 0.00932 kcal/mol | excess molar enthalpy ([2]; 323.15 K, x2 = 0.5174): -0.278 ± 0.0112 kcal/mol | excess molar enthalpy ([2]; 323.15 K, x2 = 0.5224): -0.279 ± 0.0115 kcal/mol | excess molar enthalpy ([2]; 323.15 K, x2 = 0.6286): -0.291 ± 0.012 kcal/mol | excess molar enthalpy ([2]; 323.15 K, x2 = 0.7693): -0.26 ± 0.0105 kcal/mol | excess molar enthalpy ([2]; 323.15 K, x2 = 0.8804): -0.176 ± 0.00717 kcal/mol
